Data: PubChem BioAssay AID540351 (The Scripps Research Institute Molecular Screening Center, 2011)
Active and inactive are the calls of the source. No rule for the calls is given here.

Columns and labels:
Test in all cases: selectivity profiling over binding targets, CYP450 – biochemical, Ricerca HitProfilingScreen, selectivity assay for S1P3 agonist project, profiling panel (AID 540351)
[1] = target: 5-hydroxytryptamine receptor 2B (Homo sapiens) (UniProt P41595); details: Ricerca receptor/enzyme binding panel plus CYP450; Serotonin (5-Hydroxytryptamine) 5-HT2B; at 30 µM; stronger effect = higher value
Adenosine A1 = details: Ricerca receptor/enzyme binding panel plus CYP450, at 30 µM, stronger effect = higher value
Adenosine A2A = details: Ricerca receptor/enzyme binding panel plus CYP450, at 30 µM, stronger effect = higher value
Adrenergic alpha1A = details: Ricerca receptor/enzyme binding panel plus CYP450, at 30 µM, stronger effect = higher value
Adrenergic alpha1B = details: Ricerca receptor/enzyme binding panel plus CYP450, at 30 µM, stronger effect = higher value
Adrenergic beta1 = details: Ricerca receptor/enzyme binding panel plus CYP450, at 30 µM, stronger effect = higher value
[2] = target: Alpha-2A adrenergic receptor (Homo sapiens) (UniProt P08913); details: Ricerca receptor/enzyme binding panel plus CYP450; Adrenergic alpha2A; at 30 µM; stronger effect = higher value
[3] = test system: Alpha-2A adrenergic receptor (Homo sapiens) + Histamine H1 receptor (Homo sapiens) + Mu-type opioid receptor (Homo sapiens); details: Ricerca receptor/enzyme binding panel plus CYP450; at 30 µM; stronger effect = higher value
[4] = target: Beta-2 adrenergic receptor (Homo sapiens) (UniProt P07550); details: Ricerca receptor/enzyme binding panel plus CYP450; Adrenergic beta2; at 30 µM; stronger effect = higher value
CYP450, 2C19 = details: Ricerca receptor/enzyme binding panel plus CYP450, at 30 µM, stronger effect = higher value
Calcium Channel L-Type = details: Ricerca receptor/enzyme binding panel plus CYP450, Dihydropyridine, at 30 µM, stronger effect = higher value
Cannabinoid CB1 = details: Ricerca receptor/enzyme binding panel plus CYP450, at 30 µM, stronger effect = higher value
[5] = target: Cytochrome P450 1A2 (Homo sapiens) (UniProt P05177); details: Ricerca receptor/enzyme binding panel plus CYP450; CYP450, 1A2; at 30 µM; stronger effect = higher value
[6] = target: Cytochrome P450 2C9 (Homo sapiens) (UniProt P11712); details: Ricerca receptor/enzyme binding panel plus CYP450; CYP450, 2C9; at 30 µM; stronger effect = higher value
[7] = target: Cytochrome P450 2D6 (Homo sapiens) (UniProt P10635); details: Ricerca receptor/enzyme binding panel plus CYP450; CYP450, 2D6; at 30 µM; stronger effect = higher value
[8] = target: Cytochrome P450 3A4 (Homo sapiens) (UniProt P08684); details: Ricerca receptor/enzyme binding panel plus CYP450; CYP450, 3A4; at 30 µM; stronger effect = higher value
[9] = target: D(1A) dopamine receptor (Homo sapiens) (UniProt P21728); details: Ricerca receptor/enzyme binding panel plus CYP450; Dopamine D1; at 30 µM; stronger effect = higher value
Dopamine D2 = details: Ricerca receptor/enzyme binding panel plus CYP450, at 30 µM, stronger effect = higher value
GABAA = details: Central, at 30 µM, stronger effect = higher value
Glutamate NMDA = details: Ricerca receptor/enzyme binding panel plus CYP450, Phencyclidine, at 30 µM, stronger effect = higher value
Histamine H1 = details: Ricerca receptor/enzyme binding panel plus CYP450, at 30 µM, stronger effect = higher value
[10] = target: Muscarinic acetylcholine receptor M2 (Homo sapiens) (UniProt P08172); details: Ricerca receptor/enzyme binding panel plus CYP450, at 30 µM, stronger effect = higher value
[11] = target: Muscarinic acetylcholine receptor M3 (Homo sapiens) (UniProt P20309); details: Ricerca receptor/enzyme binding panel plus CYP450, at 30 µM, stronger effect = higher value
Nicotinic Acetylcholine = details: Ricerca receptor/enzyme binding panel plus CYP450, at 30 µM, stronger effect = higher value
Opiate mu (OP3, MOP) = details: Ricerca receptor/enzyme binding panel plus CYP450, at 30 µM, stronger effect = higher value
Prostanoid EP4 = details: Ricerca receptor/enzyme binding panel plus CYP450, at 30 µM, stronger effect = higher value
Sigma 1 = details: Ricerca receptor/enzyme binding panel plus CYP450, at 30 µM, stronger effect = higher value
Sodium Channel, Site 2 = details: Ricerca receptor/enzyme binding panel plus CYP450, at 30 µM, stronger effect = higher value
[12] = test system: Transporter, Norepinephrine (NET); details: Ricerca receptor/enzyme binding panel plus CYP450, at 30 µM, stronger effect = higher value
[13] = target: Voltage-gated inwardly rectifying potassium channel KCNH2 (Homo sapiens) (UniProt Q12809); details: Ricerca receptor/enzyme binding panel plus CYP450; Potassium Channel hERG; at 30 µM; stronger effect = higher value

Measured: inhibition

Muscarinic acetylcholine receptor M2 (Homo sapiens), sequence (P08172 whole entry, looked up): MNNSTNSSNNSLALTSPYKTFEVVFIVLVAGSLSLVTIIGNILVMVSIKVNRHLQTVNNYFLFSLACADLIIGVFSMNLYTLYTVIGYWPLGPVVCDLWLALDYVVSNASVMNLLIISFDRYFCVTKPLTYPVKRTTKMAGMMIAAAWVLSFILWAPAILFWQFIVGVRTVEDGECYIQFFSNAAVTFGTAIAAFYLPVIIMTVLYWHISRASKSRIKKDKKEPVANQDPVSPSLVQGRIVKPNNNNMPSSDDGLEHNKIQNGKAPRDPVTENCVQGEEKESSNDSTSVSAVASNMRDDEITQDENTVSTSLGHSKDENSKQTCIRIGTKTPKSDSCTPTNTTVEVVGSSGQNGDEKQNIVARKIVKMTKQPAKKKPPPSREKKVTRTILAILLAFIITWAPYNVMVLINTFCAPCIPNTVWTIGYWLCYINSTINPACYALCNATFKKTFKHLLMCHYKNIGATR
Muscarinic acetylcholine receptor M3 (Homo sapiens), sequence (P20309 whole entry, looked up): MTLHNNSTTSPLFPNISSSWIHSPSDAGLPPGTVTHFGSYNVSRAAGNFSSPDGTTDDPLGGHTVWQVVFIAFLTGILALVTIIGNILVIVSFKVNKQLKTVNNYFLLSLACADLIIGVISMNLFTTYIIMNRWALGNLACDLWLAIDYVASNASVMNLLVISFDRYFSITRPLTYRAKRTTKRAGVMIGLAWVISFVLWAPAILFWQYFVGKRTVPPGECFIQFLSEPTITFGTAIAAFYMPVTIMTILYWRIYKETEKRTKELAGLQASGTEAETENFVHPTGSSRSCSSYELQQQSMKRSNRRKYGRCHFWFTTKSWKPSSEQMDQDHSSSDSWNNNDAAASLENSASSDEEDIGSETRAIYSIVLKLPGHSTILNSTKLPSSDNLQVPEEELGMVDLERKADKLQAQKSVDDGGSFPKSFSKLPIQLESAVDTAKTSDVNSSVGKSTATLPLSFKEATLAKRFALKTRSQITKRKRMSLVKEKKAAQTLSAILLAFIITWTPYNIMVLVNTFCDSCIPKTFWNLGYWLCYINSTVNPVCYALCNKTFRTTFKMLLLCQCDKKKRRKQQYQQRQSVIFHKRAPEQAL
Cytochrome P450 2D6 (Homo sapiens), sequence (P10635 whole entry, looked up): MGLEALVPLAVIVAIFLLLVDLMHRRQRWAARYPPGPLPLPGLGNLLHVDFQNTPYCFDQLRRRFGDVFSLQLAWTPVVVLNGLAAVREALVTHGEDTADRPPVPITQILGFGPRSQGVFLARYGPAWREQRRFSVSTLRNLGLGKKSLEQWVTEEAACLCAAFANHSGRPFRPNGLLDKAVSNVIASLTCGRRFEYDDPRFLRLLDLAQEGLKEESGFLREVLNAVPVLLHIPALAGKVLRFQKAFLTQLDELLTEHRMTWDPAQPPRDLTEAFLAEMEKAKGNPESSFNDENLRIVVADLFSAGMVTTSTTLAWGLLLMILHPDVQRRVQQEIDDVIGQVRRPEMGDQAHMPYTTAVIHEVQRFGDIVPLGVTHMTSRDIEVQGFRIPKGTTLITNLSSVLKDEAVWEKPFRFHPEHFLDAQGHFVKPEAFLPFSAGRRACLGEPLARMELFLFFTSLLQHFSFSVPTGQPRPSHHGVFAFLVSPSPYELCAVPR
5-hydroxytryptamine receptor 2B (Homo sapiens), sequence (P41595 whole entry, looked up): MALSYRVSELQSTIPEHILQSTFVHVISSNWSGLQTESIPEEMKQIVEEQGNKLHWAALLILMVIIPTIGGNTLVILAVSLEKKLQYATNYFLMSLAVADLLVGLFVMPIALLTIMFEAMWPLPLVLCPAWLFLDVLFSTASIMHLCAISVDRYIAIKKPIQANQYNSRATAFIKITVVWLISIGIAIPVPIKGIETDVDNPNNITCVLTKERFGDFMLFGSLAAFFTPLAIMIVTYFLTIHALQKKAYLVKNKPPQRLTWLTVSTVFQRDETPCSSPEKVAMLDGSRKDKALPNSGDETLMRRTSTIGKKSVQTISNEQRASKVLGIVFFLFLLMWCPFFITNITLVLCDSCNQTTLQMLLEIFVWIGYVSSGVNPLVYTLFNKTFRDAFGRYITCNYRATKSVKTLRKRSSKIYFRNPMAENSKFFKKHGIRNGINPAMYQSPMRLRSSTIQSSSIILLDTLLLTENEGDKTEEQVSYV
Cytochrome P450 1A2 (Homo sapiens), sequence (P05177 whole entry, looked up): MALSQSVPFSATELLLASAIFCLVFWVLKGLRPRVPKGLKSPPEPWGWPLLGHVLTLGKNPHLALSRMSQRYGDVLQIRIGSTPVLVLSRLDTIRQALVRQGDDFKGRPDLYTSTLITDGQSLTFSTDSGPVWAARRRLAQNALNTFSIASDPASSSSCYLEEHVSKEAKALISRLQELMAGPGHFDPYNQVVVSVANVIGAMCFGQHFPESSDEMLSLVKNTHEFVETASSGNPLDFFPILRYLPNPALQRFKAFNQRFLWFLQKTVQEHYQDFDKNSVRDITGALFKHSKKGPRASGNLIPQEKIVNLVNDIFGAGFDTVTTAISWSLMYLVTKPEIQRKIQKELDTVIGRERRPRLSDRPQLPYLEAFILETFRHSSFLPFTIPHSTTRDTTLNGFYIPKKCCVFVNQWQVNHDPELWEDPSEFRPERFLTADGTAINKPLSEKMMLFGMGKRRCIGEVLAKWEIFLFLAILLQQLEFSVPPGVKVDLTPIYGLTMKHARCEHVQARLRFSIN
Cytochrome P450 3A4 (Homo sapiens), sequence (P08684 whole entry, looked up): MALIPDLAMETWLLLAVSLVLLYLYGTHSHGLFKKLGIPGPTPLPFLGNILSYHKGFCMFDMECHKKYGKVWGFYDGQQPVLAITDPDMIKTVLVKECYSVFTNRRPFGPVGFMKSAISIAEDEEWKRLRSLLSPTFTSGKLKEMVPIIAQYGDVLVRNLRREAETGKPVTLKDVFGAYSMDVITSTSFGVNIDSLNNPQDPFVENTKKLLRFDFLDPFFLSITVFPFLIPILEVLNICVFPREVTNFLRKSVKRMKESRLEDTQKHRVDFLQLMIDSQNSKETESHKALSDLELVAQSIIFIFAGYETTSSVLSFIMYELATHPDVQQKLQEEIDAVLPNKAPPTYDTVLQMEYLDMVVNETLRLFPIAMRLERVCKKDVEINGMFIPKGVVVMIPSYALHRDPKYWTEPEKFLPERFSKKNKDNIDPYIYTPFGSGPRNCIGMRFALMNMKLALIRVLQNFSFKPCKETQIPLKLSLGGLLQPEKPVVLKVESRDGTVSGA
Cytochrome P450 2C9 (Homo sapiens), sequence (P11712 whole entry, looked up): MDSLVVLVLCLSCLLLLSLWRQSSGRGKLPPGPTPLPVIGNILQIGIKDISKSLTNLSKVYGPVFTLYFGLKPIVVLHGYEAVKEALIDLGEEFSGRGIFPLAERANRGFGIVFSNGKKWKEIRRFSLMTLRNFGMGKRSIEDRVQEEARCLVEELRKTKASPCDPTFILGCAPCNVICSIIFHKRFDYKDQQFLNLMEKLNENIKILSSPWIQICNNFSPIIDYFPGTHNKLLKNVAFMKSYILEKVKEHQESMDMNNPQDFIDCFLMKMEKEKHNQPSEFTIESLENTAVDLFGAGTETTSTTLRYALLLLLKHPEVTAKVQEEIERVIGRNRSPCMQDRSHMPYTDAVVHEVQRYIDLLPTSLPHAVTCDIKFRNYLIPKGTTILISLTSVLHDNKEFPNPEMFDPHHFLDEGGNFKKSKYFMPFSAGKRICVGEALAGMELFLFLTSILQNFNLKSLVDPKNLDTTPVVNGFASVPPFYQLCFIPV
Beta-2 adrenergic receptor (Homo sapiens), sequence (P07550 whole entry, looked up): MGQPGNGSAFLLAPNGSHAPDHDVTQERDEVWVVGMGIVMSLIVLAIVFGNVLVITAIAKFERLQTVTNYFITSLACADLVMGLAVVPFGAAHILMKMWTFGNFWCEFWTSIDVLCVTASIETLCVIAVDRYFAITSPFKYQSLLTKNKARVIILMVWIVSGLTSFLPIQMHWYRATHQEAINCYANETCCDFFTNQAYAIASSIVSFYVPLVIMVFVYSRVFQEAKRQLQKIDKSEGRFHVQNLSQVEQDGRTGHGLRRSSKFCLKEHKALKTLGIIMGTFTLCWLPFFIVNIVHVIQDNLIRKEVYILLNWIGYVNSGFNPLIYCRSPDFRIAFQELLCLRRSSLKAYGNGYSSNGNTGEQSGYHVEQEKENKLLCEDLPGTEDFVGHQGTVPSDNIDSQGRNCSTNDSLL
D(1A) dopamine receptor (Homo sapiens), sequence (P21728 whole entry, looked up): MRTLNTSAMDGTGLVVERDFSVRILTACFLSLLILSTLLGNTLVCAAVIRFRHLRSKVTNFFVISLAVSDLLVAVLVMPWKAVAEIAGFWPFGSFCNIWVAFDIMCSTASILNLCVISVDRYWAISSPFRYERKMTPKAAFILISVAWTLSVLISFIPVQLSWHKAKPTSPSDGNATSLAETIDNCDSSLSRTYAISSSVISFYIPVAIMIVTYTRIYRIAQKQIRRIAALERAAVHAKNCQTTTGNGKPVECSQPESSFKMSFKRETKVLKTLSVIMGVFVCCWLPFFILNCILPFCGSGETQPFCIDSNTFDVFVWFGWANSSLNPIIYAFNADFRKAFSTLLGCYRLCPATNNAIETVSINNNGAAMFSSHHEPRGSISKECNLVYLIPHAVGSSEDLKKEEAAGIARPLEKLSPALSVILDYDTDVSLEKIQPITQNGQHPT
Alpha-2A adrenergic receptor (Homo sapiens), sequence (P08913 whole entry, looked up): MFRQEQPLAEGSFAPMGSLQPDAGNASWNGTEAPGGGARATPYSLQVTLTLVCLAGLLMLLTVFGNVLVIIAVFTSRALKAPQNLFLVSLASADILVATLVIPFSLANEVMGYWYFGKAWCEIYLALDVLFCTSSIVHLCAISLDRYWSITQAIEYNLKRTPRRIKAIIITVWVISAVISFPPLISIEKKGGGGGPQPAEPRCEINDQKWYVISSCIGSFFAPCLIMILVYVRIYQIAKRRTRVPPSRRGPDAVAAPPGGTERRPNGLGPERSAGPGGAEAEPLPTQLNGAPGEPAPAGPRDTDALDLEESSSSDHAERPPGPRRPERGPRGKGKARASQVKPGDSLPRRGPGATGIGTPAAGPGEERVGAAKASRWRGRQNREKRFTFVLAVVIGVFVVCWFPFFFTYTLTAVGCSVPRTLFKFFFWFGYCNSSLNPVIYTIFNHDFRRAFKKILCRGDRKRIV

O=C(c1cc(C2CC2)on1)N(C1CCCCC1)C1CCCCC1
active: CYP450, 2C19 68% | Cannabinoid CB1 58% | [8] 74% | Histamine H1 51% | Nicotinic Acetylcholine -50% | Sodium Channel, Site 2 59% | [12] 52%
inactive: [1] 20% | Adenosine A1 38% | Adenosine A2A 5% | Adrenergic alpha1A 21% | Adrenergic alpha1B 13% | Adrenergic beta1 45% | [2] 34% | [3] -2% | [4] -1% | Calcium Channel L-Type 28% | [5] 0% | [6] 24% | [7] -26% | [9] 21% | Dopamine D2 -1% | GABAA; Ricerca receptor/enzyme binding panel plus CYP450, Flunitrazepam 1% | GABAA; Ricerca receptor/enzyme binding panel plus CYP450, Muscimol -2% | Glutamate NMDA 1% | [10] -1% | [11] 47% | Opiate mu (OP3, MOP) 38% | Prostanoid EP4 32% | Sigma 1 16% | [13] 42%
